Source: patent US11753407B2, “Compounds for treating spinal muscular atrophy” (PTC Therapeutics, Inc., priority 2012, dated 2023)

Experiments:
[1] = system: SMN2 minigene mRNA (SMN2-A minigene) in HEK293H cells; test: SMN2 minigene mRNA splicing RT-qPCR assay in cultured cells; assay type: cell-based, human; conditions: Homo sapiens, HEK293-H; concentration increasing full length SMN2 mRNA 1.5-fold relative to vehicle-treated cells; HEK293H cells with SMN2-A minigene, 24 hours, 7-point concentration data; read-out: EC1.5x for production of full length SMN2 mRNA
Summary of the method: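 Read-out: minigene-specific full-length (exon 7-included) SMN2 mRNA by one-step multiplex RT-qPCR, normalized to GAPDH and divided by vehicle-treated level. Stable SMN2-A minigene HEK293H cells, 24 h compound exposure, 7 concentrations in duplicate. EC1.5× = concentration raising FL mRNA 1.5-fold.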

[2] = system: Smn protein in SMA patient fibroblast cells (GM03813); test: Smn protein assay in cultured cells (SMN HTRF); assay type: cell-based, human; conditions: SMA patient fibroblast cells, 48 hours; for EC1.5x for Smn protein expression: 7-point concentration curve, SMN HTRF, concentration producing 1.5 times Smn protein vs DMSO vehicle control; for maximum fold (Fold) increase of Smn protein: 7-point concentration data, fold relative to vehicle control
Summary of the method: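 Read-out: HTRF 665/620 nm ratio, blank-subtracted as ΔF, then expressed as fold over DMSO vehicle. Fibroblasts from SMA patients were exposed to compounds for 48 h (7 points, 3.16-fold steps, triplicates). Values are EC1.5× and maximum fold Smn increase.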

| SMILES | melting point | EC (1.5-fold increase) [1] | EC1.5x for Smn protein expression [2] | maximum fold (Fold) increase of Smn protein [2] |
| --- | --- | --- | --- | --- |
| CCc1cc(-c2cc(=O)n3cc(C4CCNCC4)ccc3n2)cn2cc(C)nc12 [Compound 696, 2-(8-ethyl-2-methylimidazo[1,2-a]pyridin-6-yl)-7-(piperidin-4-yl)-4H-pyrido[1,2-a]pyrimidin-4-one] | 221 to 224 °C | < 0.1 µM | **** (an EC1.5x≤0.3 μM is indicated by four stars (****)) | ***** (a fold increase >1.65 is indicated by five stars (*****)) |
| CCc1cc(-c2cc(=O)n3cc(C4CCN(C)CC4)ccc3n2)cn2cc(C)nc12 [Compound 697, 2-(8-ethyl-2-methylimidazo[1,2-a]pyridin-6-yl)-7-(1-methylpiperidin-4-yl)-4H-pyrido[1,2-a]pyrimidin-4-one] | 214 to 218 °C | < 0.1 µM | **** (an EC1.5x≤0.3 μM is indicated by four stars (****)) | ***** (a fold increase >1.65 is indicated by five stars (*****)) |
| CCc1cc(-c2cc(=O)n3cc(C4CCN(CC)CC4)ccc3n2)cn2cc(C)nc12 [Compound 698, 2-(8-ethyl-2-methylimidazo[1,2-a]pyridin-6-yl)-7-(1-ethylpiperidin-4-yl)-4H-pyrido[1,2-a]pyrimidin-4-one] | 196 to 200 °C | < 0.1 µM | **** (an EC1.5x≤0.3 μM is indicated by four stars (****)) | ***** (a fold increase >1.65 is indicated by five stars (*****)) |
| CCc1cc(-c2cc(=O)n3cc(C4CCN(CCO)CC4)ccc3n2)cn2cc(C)nc12 [Compound 699, 2-(8-ethyl-2-methylimidazo[1,2-a]pyridin-6-yl)-7-[1-(2-hydroxyethyl)piperidin-4-yl]-4H-pyrido[1,2-a]pyrimidin-4-one] | 244 to 247 °C | < 0.1 µM | **** (an EC1.5x≤0.3 μM is indicated by four stars (****)) | ***** (a fold increase >1.65 is indicated by five stars (*****)) |
| CCc1cc(-c2cc(=O)n3cc(N4CCN(C)[C@H](C)C4)ccc3n2)cn2cc(C)nc12 [Compound 700, 7-[(3R)-3,4-dimethylpiperazin-1-yl]-2-(8-ethyl-2-methylimidazo[1,2-a]pyridin-6-yl)-4H-pyrido[1,2-a]pyrimidin-4-one] | 217 to 220 °C | < 0.1 µM | **** (an EC1.5x≤0.3 μM is indicated by four stars (****)) | ***** (a fold increase >1.65 is indicated by five stars (*****)) |
| CCc1cc(-c2cc(=O)n3cc(N4CCN(CC)[C@H](C)C4)ccc3n2)cn2cc(C)nc12 [Compound 701, 2-(8-ethyl-2-methylimidazo[1,2-a]pyridin-6-yl)-7-[(3R)-4-ethyl-3-methylpiperazin-1-yl]-4H-pyrido[1,2-a]pyrimidin-4-one] | 179 to 182 °C | < 0.1 µM | **** (an EC1.5x≤0.3 μM is indicated by four stars (****)) | ***** (a fold increase >1.65 is indicated by five stars (*****)) |
| Cc1cn2nc(-c3cc(=O)n4cc(C5CCN(CCO)CC5)cc(C)c4n3)cc2c(C)n1 [Compound 703, 2-(4,6-dimethylpyrazolo[1,5-a]pyrazin-2-yl)-7-[1-(2-hydroxyethyl)piperidin-4-yl]-9-methyl-4H-pyrido[1,2-a]pyrimidin-4-one] | 224 to 233 °C | < 0.1 µM | **** (an EC1.5x≤0.3 μM is indicated by four stars (****)) | ***** (a fold increase >1.65 is indicated by five stars (*****)) |
| Cc1cn2nc(-c3cc(=O)n4cc(C5CCN(C6CCC6)CC5)cc(C)c4n3)cc2c(C)n1 [Compound 704, 7-(1-cyclobutylpiperidin-4-yl)-2-(4,6-dimethylpyrazolo[1,5-a]pyrazin-2-yl)-9-methyl-4H-pyrido[1,2-a]pyrimidin-4-one] | 228 to 237 °C | 0.1 to 0.3 µM | **** (an EC1.5x≤0.3 μM is indicated by four stars (****)) | **** (a fold increase between >1.5 and ≤1.65 is indicated by four stars (****)) |
| Cc1cc(C2CCN(C)CC2)cn2c(=O)cc(-c3ccc4nn(C)cc4c3)nc12 [Compound 705, 9-methyl-2-(2-methyl-2H-indazol-5-yl)-7-(1-methylpiperidin-4-yl)-4H-pyrido[1,2-a]pyrimidin-4-one] | 222 to 227 °C | < 0.1 µM | **** (an EC1.5x≤0.3 μM is indicated by four stars (****)) | ***** (a fold increase >1.65 is indicated by five stars (*****)) |
| Cc1cn2nc(-c3cc(=O)n4cc(N5CCC(C)(N(C)C)CC5)ccc4n3)cc2c(C)n1 [Compound 706, 7-[4-(dimethylamino)-4-methylpiperidin-1-yl]-2-(4,6-dimethylpyrazolo[1,5-a]pyrazin-2-yl)-4H-pyrido[1,2-a]pyrimidin-4-one] | 237 to 239 °C | < 0.1 µM | **** (an EC1.5x≤0.3 μM is indicated by four stars (****)) | ***** (a fold increase >1.65 is indicated by five stars (*****)) |

Now from value to compound, other results behind:

| melting point | SMILES | EC (1.5-fold increase) [1] | EC1.5x for Smn protein expression [2] | maximum fold (Fold) increase of Smn protein [2] |
| --- | --- | --- | --- | --- |
| 187 to 189 °C | CCNC1(C)CCN(c2ccc3nc(-c4cc5c(C)nc(C)cn5n4)cc(=O)n3c2)CC1 [Compound 707, 2-(4,6-dimethylpyrazolo[1,5-a]pyrazin-2-yl)-7-[4-(ethylamino)-4-methylpiperidin-1-yl]-4H-pyrido[1,2-a]pyrimidin-4-one] | < 0.1 µM | **** (an EC1.5x≤0.3 μM is indicated by four stars (****)) | ***** (a fold increase >1.65 is indicated by five stars (*****)) |
| 181 to 183 °C | CCCNC1(C)CCN(c2ccc3nc(-c4cc5c(C)nc(C)cn5n4)cc(=O)n3c2)CC1 [Compound 708, 2-(4,6-dimethylpyrazolo[1,5-a]pyrazin-2-yl)-7-[4-methyl-4-(propylamino)piperidin-1-yl]-4H-pyrido[1,2-a]pyrimidin-4-one] | < 0.1 µM | **** (an EC1.5x≤0.3 μM is indicated by four stars (****)) | ***** (a fold increase >1.65 is indicated by five stars (*****)) |
| 196 to 198 °C | Cc1cn2nc(-c3cc(=O)n4cc(N5CCC(C)(NCCO)CC5)ccc4n3)cc2c(C)n1 [Compound 709, 2-(4,6-dimethylpyrazolo[1,5-a]pyrazin-2-yl)-7-{4-[(2-hydroxyethyl)amino]-4-methylpiperidin-1-yl}-4H-pyrido[1,2-a]pyrimidin-4-one] | < 0.1 µM | **** (an EC1.5x≤0.3 μM is indicated by four stars (****)) | ***** (a fold increase >1.65 is indicated by five stars (*****)) |
| 232 to 235 °C | Cc1cc(C2CCN(C3CCC3)CC2)cn2c(=O)cc(-c3ccc4nn(C)cc4c3)nc12 [Compound 710, 7-(1-cyclobutylpiperidin-4-yl)-9-methyl-2-(2-methyl-2H-indazol-5-yl)-4H-pyrido[1,2-a]pyrimidin-4-one] | < 0.1 µM | **** (an EC1.5x≤0.3 μM is indicated by four stars (****)) | ***** (a fold increase >1.65 is indicated by five stars (*****)) |
